Data set [1] can be described thus: Kinetic solubility study at pH 4.5 (acetic acid/sodium acetate buffer, HPLC area). Conditions: for Encl. Citr. average / solubility at pH 4.5 compared with Enclomiphene citrate having non-needle crystals: pH 4.5. The method, then: (§1) Solubility was determined by HPLC analysis, by comparison of the area corresponding to Enclomiphene HPLC peak.
(§2) To carry out the solubility studies, 400 mg of each product (not grinded) was stirred in water (24 ml, 60v) under the same conditions of stirring speed (magnetic stirring at 1000 rpm with a 2 cm “rugby shape” stir bar), flask used (round bottom flask of 50 ml of capacity with a 29/32 neck), etc. Alliquotes of ca 6 ml of suspension were filtered at different times: 15, 45, 90 and 180 min. After filtration, mother liquors were directly analyzed by HPLC (doing 2 replicates for each analysis) and its pH was determined. The filtered solid was analyzed by XRPD. The solubility analysis was repeated for each product and comparison of solubility was determined by the differences of HPLC area.
Solubility at a slightly acid medium was determined at pH 4.5 buffer used was a mixture acetic acid/sodium acetate prepared according to USP specifications.

Data set [2] in a line: Particle size distribution by laser diffraction, wet dispersion. Type of data set: physicochemical. The source says:
Different techniques can be used in order to determine the population size distribution (Microscopy image analysis, sieving, sedimentation . . . ). However laser diffraction particle size analyzer using light scattering is one of the most widely used. It is worth noting that each technique is liable to generate a different mean diameter as well as measuring different properties of the particle. Therefore it is very important to indicate the used technique when a result of mean size is given.
Particle size analysis by laser diffraction analyzer can be performed in wet or dry dispersion. However wet dispersion was selected because: • it allows to use only a small amount of sample, • it is recommended for fragile particles such as organic crystals.
Particle size distribution was analyzed in a Beckman Coulter LS13320 apparatus equipped with an Universal Liquid Module.
The particles have to be insoluble in the liquid used for the wet dispersion to avoid dissolution during the measurement.
40 mg of the sample were stirred in 25 ml of water and 3 drops of Triton X100 (to improve the wettability of the crystals and to avoid agglomeration during the analysis). If necessary, ultrasonic irradiation (bath 30 kHz and 200 W) was used for short time in order to break up any agglomerates or aggregates.

Data set [3] in a line: Filterability of suspension in ethanol. Conditions: 40 mL of suspension in ethanol, on paper over a Buckner. Type of data set: physicochemical. The method, then:
Enclomiphene having prismatic shaped crystal habit is indeed very well filterable, since, for example, the filtration (on paper over a Buckner) of 40 mL of suspensions containing of said solid in ethanol takes only 10 seconds.

Data set [4] is described as follows: Bulk and tapped density (in-house method, filled space of 500 mg in a test tube). Type of data set: physicochemical. The procedure:
Density was determined by an in-house method measuring the filled space by a sample of 500 mg in a test tube before and after hitting the tube (bulk and tapped density, respectively):
The compressibility index calculated from bulk and tapped densities can be used to estimate the flow characteristics of the powder. Following the rule described in the article Chem Eng 1965; 72:163-168, it can be considered that the flow character should be: • Excellent for Enclomiphene base having prismatic shaped crystal habit, • Passable for Enclomiphene base having non-prismatic shaped crystal habit (of example 19).

Data set [5] in a line: Stability study of crystal habit by microscopy, three stability conditions for 30 days. Type of data set: physicochemical. Conditions: 30 days at 60% RH, 75% RH-40° C., 95% RH. The source says: (B), and 95% RH (C), with reflected light (left) and transmitted light (right) (scale 500 μm).
Microscopy analysis of Enclomiphene base having prismatic shaped crystal habit exposed to three stability conditions for 30 days indicated the same colorless transparent prism as the starting product.

Data set [6] is described as follows: Flowability through a glass funnel (in-house method). Type of data set: physicochemical. The procedure: Flowability was determined by an in-house method using a glass funnel (diameter 80 mm-stem diameter 10 mm-stem length 75 mm) with approximately 5 g of product repeating the process three times (in the cases in which flowability was observed). Different parameters were observed: • Flow or not • Need of percussion • Time to pass through the funnel

Data set [7] can be described thus: Hygroscopicity by DVS (Dynamic Vapour Sorption). The data set is classed as physicochemical. Conditions: 25° C.; for water uptake at 95% RH: 0-95% RH. The procedure:
This is a gravimetric technique that measures how much water is absorbed or desorbed by a sample at different relative humidity (RH). At each RH, the sample mass must be allowed to reach gravimetric equilibrium (or surpassed time limit) before progressing to the next humidity level. Sorption and desorption isotherms will be performed at 25° C. over a range of 0-95% RH. The type of sorption isotherm is determined by the pore size and surface character of the material.

Data set [8] in a line: Kinetic solubility study in water (HPLC area of Enclomiphene peak). The procedure:
as §1
For each solubility study, the following parameters were monitored: • intensity of Enclomiphene peak for each replicate of the assay • average value • standard deviation.
as §2
Below an HPLC method that allow to have a fast determination of Enclomiphene solubility:
These HPLC conditions were used to perform solubility analysis.

Where [9] appears, read: water + Triton X100, without sonication, listed as Enclomiphene having prismatic shaped crystal habit.
[10] abbreviates: water + Triton X100, without sonication, listed as Sample 724.
The mark [11] stands for this setting: water + Triton X100, without sonication, listed as batch 724.
[12] abbreviates: first run (example 19: with constant percussion).
Where [13] appears, read: first run, approx. 5 g, glass funnel.
The mark [14] stands for this setting: water + Triton X100, without sonication, listed as Sample 725.
Setting [15] is: water + Triton X100, without sonication, listed as batch 725.

From patent US20170349533A1 (F.I.S.- FABBRICA ITALIANA SINTETICI S.P.A, priority 2014, published 2017) come the findings set out here.

Values joined by “and” are separate entries in the source; they are usually repeats but may differ in a detail not shown here. Equal values may be shown once. “Also recorded” adds a separate entry of the source.

As for `CCN(CC)CCOc1ccc(/C(=C(/Cl)c2ccccc2)c2ccccc2)cc1` [Enclomiphene acetate], the “Encl. Citr. average” value was 0 HPLC area in data set [1] (0 min); 14069 HPLC area in data set [1] (15 min); 13771 HPLC area in data set [1] (45 min); 13708 HPLC area in data set [1] (90 min); 13196 HPLC area in data set [1] (180 min).
As for `CCN(CC)CCOc1ccc(/C(=C(/Cl)c2ccccc2)c2ccccc2)cc1` [Enclomiphene base (example 18), Enclomiphene], the “PSD D10” value was determined as 80 μm in data set [2] (setting [9]) and 81.89 μm in data set [2] (setting [10]). Moreover, the “PSD D90” value in data set [2] (setting [9]) and in data set [2] (setting [10]) was 770 μm in each case. The “PSD Mean” value in data set [2] (setting [10]) and in data set [2] (setting [11]) was 374.3 μm in each case. For the same compound, the figures for the “PSD Median (D50)” value in data set [2] (setting [10]) and in data set [2] (setting [11]) were 306.4 μm and 306.54 μm, respectively. Further, the “PSD Mode” value in data set [2] (setting [10]) worked out at 356.1 μm. This compound also returned a filtration time in data set [3] of 10 s. Also, the “filled space of 500 mg in test tube” value in data set [4] (filled space of 500 mg in a test tube after hitting the tube, listed as Enclomiphene (example 18)) came to 8 mm; in data set [4] (filled space of 500 mg in a test tube after hitting the tube, listed as Enclomiphene base having prismatic crystal habit) it was 8 mm; in data set [4] (filled space of 500 mg in a test tube before hitting the tube, listed as Enclomiphene (example 18)), 8 mm; in data set [4] (filled space of 500 mg in a test tube before hitting the tube, listed as Enclomiphene base having prismatic crystal habit), 8 mm. The “Reduced space (bulk vs tapped)” value in data set [4] (listed as Enclomiphene (example 18)) is 0%. The “stability of crystal habit” value in data set [5] is “remains stable at least one month”. Besides, the results for the “Percussion needed?” value in data set [6] (first run), in data set [6] (second run) and in data set [6] (third run) were “Yes”, “Yes” and “yes”, respectively. The “time to pass through the funnel” value in data set [6] (setting [12]) is recorded as 15 s; in data set [6] (second run), 12 s; in data set [6] (third run) it was 14 s; in data set [6] (with percussion, listed as Enclomiphene having prismatic shaped crystal habit), 10 s. Moreover, the “Flow?” value in data set [6] (setting [13]), in data set [6] (second run) and in data set [6] (third run) was “Yes” in each case. Also, the “flow through the funnel” value in data set [6] (listed as Enclomiphene having prismatic shaped crystal habit) is given as “flowed through the funnel”. Moreover, the “hygroscopicity (in words)” value in data set [7] (whole range 0-95% RH) is reported as “not hygroscopic”.
Regarding `CCN(CC)CCOc1ccc(/C(=C(/Cl)c2ccccc2)c2ccccc2)cc1` [Enclomiphene base (example 19), Enclomiphene], the “PSD D10” value in data set [2] (10 sec sonication) is given as 0.100 μm; in data set [2] (setting [14]) it was 5.819 μm. Besides, the entries for the “PSD D90” value in data set [2] (10 sec sonication) and in data set [2] (setting [14]) were 1.942 μm and 90.47 μm, respectively. Moreover, the “PSD Mean” value in data set [2] (10 sec sonication) is recorded as 0.715 μm; in data set [2] (setting [14]), 36.79 μm; in data set [2] (setting [15]), 36.79 μm. Moreover, the entries for the “PSD Median (D50)” value in data set [2] (10 sec sonication), in data set [2] (setting [14]) and in data set [2] (setting [15]) were 0.284 μm, 24.96 μm and 24.96 μm, respectively. Besides, the figures for the “PSD Mode” value in data set [2] (10 sec sonication) and in data set [2] (setting [14]) were 1.748 μm and 26.14 μm, respectively. In addition, the “filled space of 500 mg in test tube” value in data set [4] (filled space of 500 mg in a test tube after hitting the tube, listed as Enclomiphene (example 19)) is given as 13 mm; in data set [4] (filled space of 500 mg in a test tube after hitting the tube, listed as Enclomiphene base having non-prismatic crystal habit) it was 13 mm; in data set [4] (filled space of 500 mg in a test tube before hitting the tube, listed as Enclomiphene (example 19)) it was 17 mm; in data set [4] (filled space of 500 mg in a test tube before hitting the tube, listed as Enclomiphene having non-prismatic crystal habit), 24 mm. The “Reduced space (bulk vs tapped)” value in data set [4] (listed as Enclomiphene (example 19)) is reported as 24%. Further, the “Percussion needed?” value in data set [6] (first run) is recorded as “Yes (if constant)”. Moreover, the “time to pass through the funnel” value was determined as 130 s in data set [6] (setting [12]) and 130 s in data set [6] (with percussion, listed as Enclomiphene having non-prismatic shaped crystal habit). Also, the “Flow?” value in data set [6] (setting [13]) is listed as “No (static”. The “flow through the funnel” value in data set [6] (listed as Enclomiphene having non-prismatic shaped crystal habit) is “did not flow”.
On to `CCN(CC)CCOc1ccc(/C(=C(/Cl)c2ccccc2)c2ccccc2)cc1` [Enclomiphene base, Enclomiphene], for which, in data set [8], the “solubility in water (in words)” value is recorded as “highly insoluble”.
`CCN(CC)CCOc1ccc(/C(=C(/Cl)c2ccccc2)c2ccccc2)cc1.O=C(O)CC(O)(CC(=O)O)C(=O)O` [Enclomiphene citrate having needle crystals]: in data set [8] (water, listed as Enclomiphene citrate having needle shaped crystal habit), the “solubility in water compared with Enclomiphene citrate having non-needle shaped crystal habit” value is given as “almost double; also recorded: almost two times”. The “solubility at pH 4.5 compared with Enclomiphene citrate having non-needle crystals” value in data set [1] is 4 to 5 times; in data set [1] (listed as Enclomiphene citrate having needle shaped crystal habit), “four times higher”. Also, the Average a/a was found to be 0 a/a in data set [1] (pH = 4.5, 0 min); 4135 a/a in data set [1] (pH = 4.5, 15 min); 4024 a/a in data set [1] (pH = 4.5, 45 min); 5109 a/a in data set [1] (pH = 4.5, 90 min); 5079 a/a in data set [1] (pH = 4.5, 180 min). Also, the “water uptake at 95% RH” value in data set [7] (listed as batch 723) is 2.33 % weight and 2.3 % weight.
Regarding `CCN(CC)CCOc1ccc(/C(=C(/Cl)c2ccccc2)c2ccccc2)cc1.O=C(O)CC(O)(CC(=O)O)C(=O)O` [Enclomiphene citrate having non-needle crystals] [trans-Clomiphene monocitrate], the Average a/a turned out to be 0 a/a in data set [1] (pH = 4.5, 0 min); 1185 a/a in data set [1] (pH = 4.5, 15 min); 924 a/a in data set [1] (pH = 4.5, 45 min); 1095 a/a in data set [1] (pH = 4.5, 90 min); 1052 a/a in data set [1] (pH = 4.5, 180 min). Besides, in data set [7] (0-65% RH), the “moisture sorption between 0% and 65% RH” value was found to be 2 % weight. Moreover, in data set [7] (listed as batch 722), the “water uptake at 95% RH” value came to 6 % weight.
